# Assays:
# [1] = tested on: total AKT (T-AKT) and phosphorylated AKT (P-AKT (S473)); experiment: Western blot of AKT degradation in BT474 cells; assay type: cell-based, human; conditions: for T-AKT and P-AKT protein degradation (western blot): 24 h, 1, 5 and 10 μM (12-13: 1, 3 and 10 μM); for T-AKT and P-AKT degradation: 1 μM; for T-AKT and P-AKT degradation / extent of T-AKT degradation in concentration-response / T-AKT protein level (western blot): 24 h; for extent of T-AKT degradation in concentration-response: indicated concentrations; for T-AKT protein level (western blot): controls at 1 μM
# [2] = tested on: P-PRAS40 (T246) and P-S6 (S240/244); experiment: Western blot of downstream signaling inhibition in BT474 cells; assay type: cell-based, human; conditions: 24 h, compared with GDC-0068 (1 μM)
Molecule,T-AKT and P-AKT protein degradation (western blot) [1],other results
"3-(((S)-2-(4-Chlorophenyl)-3-(4-((5R,7R)-7-hydroxy-5-methyl-6,7-dihydro-5H-cyclopenta[d]pyrimidin-4-yl)piperazin-1-yl)-3-oxopropyl)amino)-N-(2-(2-((2-(2,6-dioxopiperidin-3-yl)-1,3-dioxoisoindolin-4-yl)amino)ethoxy)ethyl)propenamide [Compound 14]",not very effective at all concentrations tested,–
"3-(((S)-2-(4-Chlorophenyl)-3-(4-((5R,7R)-7-hydroxy-5-methyl-6,7-dihydro-5H-cyclopenta[d]pyrimidin-4-yl)piperazin-1-yl)-3-oxopropyl)amino)-N-(2-((2-(2,6-dioxopiperidin-3-yl)-1,3-dioxoisoindolin-4-yl)amino)ethyl)propenamide [Compound 19]",marginally effective in inducing AKT degradation at 1–10 μM,–
"3-(((S)-2-(4-Chlorophenyl)-3-(4-((5R,7R)-7-hydroxy-5-methyl-6,7-dihydro-5H-cyclopenta[d]pyrimidin-4-yl)piperazin-1-yl)-3-oxopropyl)amino)-N-(3-((2-(2,6-dioxopiperidin-3-yl)-1,3-dioxoisoindolin-4-yl)amino)propyl)propenamide [Compound 20]",marginally effective in inducing AKT degradation at 1–10 μM,–
"3-(((S)-2-(4-Chlorophenyl)-3-(4-((5R,7R)-7-hydroxy-5-methyl-6,7-dihydro-5H-cyclopenta[d]pyrimidin-4-yl)piperazin-1-yl)-3-oxopropyl)amino)-N-(4-((2-(2,6-dioxopiperidin-3-yl)-1,3-dioxoisoindolin-4-yl)amino)butyl)propenamide [Compound 21]",marginally effective in inducing AKT degradation at 1–10 μM,–
"3-(((S)-2-(4-Chlorophenyl)-3-(4-((5R,7R)-7-hydroxy-5-methyl-6,7-dihydro-5H-cyclopenta[d]pyrimidin-4-yl)piperazin-1-yl)-3-oxopropyl)amino)-N-(5-((2-(2,6-dioxopiperidin-3-yl)-1,3-dioxoisoindolin-4-yl)amino)pentyl)propenamide [Compound 22]",marginally effective in inducing AKT degradation at 1–10 μM,–
"3-(((S)-2-(4-Chlorophenyl)-3-(4-((5R,7R)-7-hydroxy-5-methyl-6,7-dihydro-5H-cyclopenta[d]pyrimidin-4-yl)piperazin-1-yl)-3-oxopropyl)amino)-N-(6-((2-(2,6-dioxopiperidin-3-yl)-1,3-dioxoisoindolin-4-yl)amino)hexyl)propenamide [Compound 23]",highly effective in reducing T-AKT and P-AKT protein levels,–
"3-(((S)-2-(4-Chlorophenyl)-3-(4-((5R,7R)-7-hydroxy-5-methyl-6,7-dihydro-5H-cyclopenta[d]pyrimidin-4-yl)piperazin-1-yl)-3-oxopropyl)amino)-N-(7-((2-(2,6-dioxopiperidin-3-yl)-1,3-dioxoisoindolin-4-yl)amino)heptyl)propenamide [Compound 24]",highly effective in reducing T-AKT and P-AKT protein levels,–
"3-(((S)-2-(4-Chlorophenyl)-3-(4-((5R,7R)-7-hydroxy-5-methyl-6,7-dihydro-5H-cyclopenta[d]pyrimidin-4-yl)piperazin-1-yl)-3-oxopropyl)amino)-N-(8-((2-(2,6-dioxopiperidin-3-yl)-1,3-dioxoisoindolin-4-yl)oxy)octyl)propenamide [Compound 29]",maintained the excellent AKT degradation,"T-AKT and P-AKT degradation [1]: > 95%; inhibition of downstream signaling, P-PRAS40 and P-S6 [2]: maintained the excellent AKT degradation and downstream signaling inhibition effects"
"3-(((S)-2-(4-Chlorophenyl)-3-(4-((5R,7R)-7-hydroxy-5-methyl-6,7-dihydro-5H-cyclopenta[d]pyrimidin-4-yl)piperazin-1-yl)-3-oxopropyl)amino)-N-(8-((2-(2,6-dioxopiperidin-3-yl)-1-oxoisoindolin-4-yl)amino)octyl)propenamide [Compound 28]",completely abolished AKT degradation activity,–
"3-(((S)-2-(4-Chlorophenyl)-3-(4-((5R,7R)-7-hydroxy-5-methyl-6,7-dihydro-5H-cyclopenta[d]pyrimidin-4-yl)piperazin-1-yl)-3-oxopropyl)amino)-N-(9-(2-(2,6-dioxopiperidin-3-yl)-1,3-dioxoisoindolin-4-yl)nonyl)propenamide [Compound 27]",maintained the excellent AKT degradation,"T-AKT and P-AKT degradation [1]: > 95%; inhibition of downstream signaling, P-PRAS40 and P-S6 [2]: maintained the excellent AKT degradation and downstream signaling inhibition effects"
"Cc1ncsc1-c1ccc(CNC(=O)[C@@H]2C[C@@H](O)CN2C(=O)[C@@H](NC(=O)COCCNC(=O)CCNC[C@@H](C(=O)N2CCN(c3ncnc4c3[C@H](C)C[C@H]4O)CC2)c2ccc(Cl)cc2)C(C)(C)C)cc1 [Compound 3, (2S,4R)-1-((2S,15S)-2-(tert-Butyl)-15-(4-chlorophenyl)-16-(4-((5R,7R)-7-hydroxy-5-methyl-6,7-dihydro-5H-cyclopenta[d]-pyrimidin-4-yl)piperazin-1-yl)-4,10,16-trioxo-6-oxa-3,9,13-triaza-hexadecanoyl)-4-hydroxy-N-(4-(4-methylthiazol-5-yl)benzyl)-pyrrolidine-2-carboxamide]",induced significant T-AKT and P-AKT protein degradation at concentrations of 5 and 10 μM,"inhibition of downstream signaling, P-PRAS40 and P-S6 [2]: less than GDC-0068"
"Cc1ncsc1-c1ccc(CNC(=O)[C@@H]2C[C@@H](O)CN2C(=O)[C@@H](NC(=O)COCCOCCNC(=O)CCNC[C@@H](C(=O)N2CCN(c3ncnc4c3[C@H](C)C[C@H]4O)CC2)c2ccc(Cl)cc2)C(C)(C)C)cc1 [Compound 4, (2S,4R)-1-((2S,18S)-2-(tert-Butyl)-18-(4-chlorophenyl)-19-(4-((5R,7R)-7-hydroxy-5-methyl-6,7-dihydro-5H-cyclopenta[d]-pyrimidin-4-yl)piperazin-1-yl)-4,13,19-trioxo-6,9-dioxa-3,12,16-tri-azanonadecanoyl)-4-hydroxy-N-(4-(4-methylthiazol-5-yl)benzyl)-pyrrolidine-2-carboxamide]",less effective in AKT degradation,–
"Cc1ncsc1-c1ccc(CNC(=O)[C@@H]2C[C@@H](O)CN2C(=O)[C@@H](NC(=O)CCCCNC(=O)CCNC[C@@H](C(=O)N2CCN(c3ncnc4c3[C@H](C)C[C@H]4O)CC2)c2ccc(Cl)cc2)C(C)(C)C)cc1 [Compound 6, (2S,4R)-1-((S)-2-(5-(3-(((S)-2-(4-Chlorophenyl)-3-(4-((5R,7R)-7-hydroxy-5-methyl-6,7-dihydro-5H-cyclopenta[d]pyrimidin-4-yl)-piperazin-1-yl)-3-oxopropyl)amino)propanamido)pentanamido)-3,3-dimethylbutanoyl)-4-hydroxy-N-(4-(4-methylthiazol-5-yl)-benzyl)pyrrolidine-2-carboxamide]",concentration-dependently reduced the protein levels of T-AKT and P-AKT,–
"Cc1ncsc1-c1ccc([C@H](C)NC(=O)[C@H]2C[C@H](O)CN2C(=O)[C@@H](NC(=O)CCCCCCCCCCC(=O)NCCNC[C@@H](C(=O)N2CCN(c3ncnc4c3[C@H](C)C[C@H]4O)CC2)c2ccc(Cl)cc2)C(C)(C)C)cc1 [Compound 61, N^1-(2-(((S)-2-(4-Chlorophenyl)-3-(4-((5R,7R)-7-hydroxy-5-methyl-6,7-dihydro-5H-cyclopenta[d]pyrimidin-4-yl)piperazin-1-yl)-3-oxopropyl)amino)ethyl)-N^12-((S)-1-((2R,4S)-4-hydroxy-2-(((S)-1-(4-(4-methylthiazol-5-yl)phenyl)ethyl)carbamoyl)pyrrolidin-1-yl)-3,3-dimethyl-1-oxobutan-2-yl)dodecanediamide]",–,extent of T-AKT degradation in concentration-response [1]: did not degrade T-AKT
"C[C@@H]1C[C@@H](O)c2ncnc(N3CCN(C(=O)[C@H](CNCCC(=O)NCCCCCCCCNc4cccc5c4C(=O)N(C4CCC(=O)N(C)C4=O)C5=O)c4ccc(Cl)cc4)CC3)c21 (stereo partly drawn) [Compound 62, 3-(((S)-2-(4-Chlorophenyl)-3-(4-((5R,7R)-7-hydroxy-5-methyl-6,7-dihydro-5H-cyclopenta[d]pyrimidin-4-yl)piperazin-1-yl)-3-oxopropyl)amino)-N-(8-((2-(1-methyl-2,6-dioxopiperidin-3-yl)-1,3-dioxoisoindolin-4-yl)amino)octyl)propenamide]",–,extent of T-AKT degradation in concentration-response [1]: did not degrade T-AKT
"Nc1cccc2c1C(=O)N(C1CCC(=O)NC1=O)C2=O (centres unmarked) [POM, pomalidomide, reference compound]",–,T-AKT protein level (western blot) [1]: no detectable effect on the T-AKT protein level
"Cc1ncsc1-c1ccc(CNC(=O)[C@@H]2C[C@@H](O)CN2C(=O)[C@@H](N)C(C)(C)C)cc1 [VHL-1, reference compound]",–,T-AKT protein level (western blot) [1]: no detectable effect on the T-AKT protein level
"(2S,4R)-1-((2S,25S)-2-(tert-Butyl)-25-(4-chlorophenyl)-26-(4-((5R,7R)-7-hydroxy-5-methyl-6,7-dihydro-5H-cyclopenta[d]-pyrimidin-4-yl)piperazin-1-yl)-4,20,26-trioxo-7,10,13,16-tetraoxa-3,19,23-triazahexacosanoyl)-4-hydroxy-N-(4-(4-methylthiazol-5-yl)benzyl)pyrrolidine-2-carboxamide [Compound 5]",less effective in AKT degradation,–
